Results reported in patent US20050197350A1, “Novel quinoline, tetrahydroquinazoline, and pyrimidine derivatives and methods of treatment related to the use thereof” (TAISHO PHARMACEUTICAL CO., LTD., priority 2003, published 2005).

These compounds were tested on MCH receptors (assay: MCH receptor activity class (method not given)). Conditions: class by percent of control at 10^−7 M or IC50.

Structure (SMILES)	class
Cc1nc(N[C@H]2CC[C@@H](NC(=O)c3ccc(OC(F)(F)F)cc3)CC2)nc(N(C)C)c1C [compound 2843, N-(cis-4-{[4-(dimethylamino)-5,6-dimethylpyrimidin-2-yl]amino}cyclohexyl)-4-(trifluoromethoxy)benzamide]	2 (Class 2: The value of percent of control at 10^−7 M was from 40% to 60% or the value of IC′50 was from 50 nM to 200 nM.)
Cc1nc(N[C@H]2CC[C@@H](NC(=O)c3ccc(C#N)cc3)CC2)nc(N(C)C)c1C [compound 2844, 4-cyano-N-(cis-4-{[4-(dimethylamino)-5,6-dimethylpyrimidin-2-yl]amino}cyclohexyl)benzamide]	1 (Class 1: The value of percent of control at 10^−7 M was less than 40% or the value of IC50 was less than 50 nM.)
Cc1ccc(C(=O)N[C@H]2CC[C@@H](Nc3nc(C)c(C)c(N(C)C)n3)CC2)cc1 [compound 2845, N-(cis-4-{[4-(dimethylamino)-5,6-dimethylpyrimidin-2-yl]amino}cyclohexyl)-4-methylbenzamide]	1 (Class 1: The value of percent of control at 10^−7 M was less than 40% or the value of IC50 was less than 50 nM.)
Cc1nc(N[C@H]2CC[C@@H](NC(=O)c3ccc(F)cc3)CC2)nc(N(C)C)c1C [compound 2846, N-(cis-4-{[4-(dimethylamino)-5,6-dimethylpyrimidin-2-yl]amino}cyclohexyl)-4-fluorobenzamide]	1 (Class 1: The value of percent of control at 10^−7 M was less than 40% or the value of IC50 was less than 50 nM.)
Cc1nc(N[C@H]2CC[C@@H](NC(=O)c3ccc(Cl)cc3)CC2)nc(N(C)C)c1C [compound 2847, 4-chloro-N-(cis-4-{[4-(dimethylamino)-5,6-dimethylpyrimidin-2-yl]amino}cyclohexyl)benzamide]	1 (Class 1: The value of percent of control at 10^−7 M was less than 40% or the value of IC50 was less than 50 nM.)
COc1ccccc1C(=O)N[C@H]1CC[C@@H](Nc2nc(C)c(C)c(N(C)C)n2)CC1 [compound 2848, N-(cis-4-{[4-(dimethylamino)-5,6-dimethylpyrimidin-2-yl]amino}cyclohexyl)-2-methoxybenzamide]	2 (Class 2: The value of percent of control at 10^−7 M was from 40% to 60% or the value of IC′50 was from 50 nM to 200 nM.)
Cc1nc(N[C@H]2CC[C@@H](NC(=O)c3ccc(Br)cc3)CC2)nc(N(C)C)c1C [compound 2849, 4-bromo-N-(cis-4-{[4-(dimethylamino)-5,6-dimethylpyrimidin-2-yl]amino}cyclohexyl)benzamide]	1 (Class 1: The value of percent of control at 10^−7 M was less than 40% or the value of IC50 was less than 50 nM.)
Cc1nc(N[C@H]2CC[C@@H](NC(=O)c3ccc(C(F)(F)F)cc3)CC2)nc(N(C)C)c1C [compound 2850, N-(cis-4-{[4-(dimethylamino)-5,6-dimethylpyrimidin-2-yl]amino}cyclohexyl)-4-(trifluoromethyl)benzamide]	1 (Class 1: The value of percent of control at 10^−7 M was less than 40% or the value of IC50 was less than 50 nM.)
CCOc1ccc(C(=O)N[C@H]2CC[C@@H](Nc3nc(C)c(C)c(N(C)C)n3)CC2)cc1 [compound 2851]	3 (Class 3 The value of percent of control at 10^−7 M was more than 60% or the value of IC50 was more than 200 nM.)
Cc1cc(C(=O)N[C@H]2CC[C@@H](Nc3nc(C)c(C)c(N(C)C)n3)CC2)ccc1Br [compound 2852, 4-bromo-N-(cis-4-{[4-(dimethylamino)-5,6-dimethylpyrimidin-2-yl]amino}cyclohexyl)-3-methylbenzamide]	1 (Class 1: The value of percent of control at 10^−7 M was less than 40% or the value of IC50 was less than 50 nM.)
Cc1ccc(C(=O)N[C@H]2CC[C@@H](Nc3nc(C)c(C)c(N(C)C)n3)CC2)cc1F [compound 2853, N-(cis-4-{[4-(dimethylamino)-5,6-dimethylpyrimidin-2-yl]amino}cyclohexyl)-3-fluoro-4-methylbenzamide]	1 (Class 1: The value of percent of control at 10^−7 M was less than 40% or the value of IC50 was less than 50 nM.)
Cc1cc(C(=O)N[C@H]2CC[C@@H](Nc3nc(C)c(C)c(N(C)C)n3)CC2)ccc1F [compound 2854, N-(cis-4-{[4-(dimethylamino)-5,6-dimethylpyrimidin-2-yl]amino}cyclohexyl)-4-fluoro-3-methylbenzamide]	1 (Class 1: The value of percent of control at 10^−7 M was less than 40% or the value of IC50 was less than 50 nM.)
CCc1cccc(C(=O)N[C@H]2CC[C@@H](Nc3nc(C)c(C)c(N(C)C)n3)CC2)c1 [compound 2855, N-(cis-4-{[4-(dimethylamino)-5,6-dimethylpyrimidin-2-yl]amino}cyclohexyl)-3-ethylbenzamide]	2 (Class 2: The value of percent of control at 10^−7 M was from 40% to 60% or the value of IC′50 was from 50 nM to 200 nM.)
Cc1nc(N[C@H]2CC[C@@H](NC(=O)c3cccc(OC(F)(F)F)c3)CC2)nc(N(C)C)c1C [compound 2856]	1 (Class 1: The value of percent of control at 10^−7 M was less than 40% or the value of IC50 was less than 50 nM.)
Cc1nc(N[C@H]2CC[C@@H](NC(=O)c3cncc(Br)c3)CC2)nc(N(C)C)c1C [compound 2857, 5-bromo-N-(cis-4-{[4-(dimethylamino)-5,6-dimethylpyrimidin-2-yl]amino}cyclohexyl)nicotinamide]	1 (Class 1: The value of percent of control at 10^−7 M was less than 40% or the value of IC50 was less than 50 nM.)
Cc1ccc(C(=O)N[C@H]2CC[C@@H](Nc3nc(C)c(C)c(N(C)C)n3)CC2)s1 [compound 2858]	1 (Class 1: The value of percent of control at 10^−7 M was less than 40% or the value of IC50 was less than 50 nM.)
Cc1nc(N[C@H]2CC[C@@H](NC(=O)c3ccc(C(F)(F)F)nc3)CC2)nc(N(C)C)c1C [compound 2859]	2 (Class 2: The value of percent of control at 10^−7 M was from 40% to 60% or the value of IC′50 was from 50 nM to 200 nM.)

Structure (SMILES)	class
CCOc1cc(OCC)cc(C(=O)N[C@H]2CC[C@@H](Nc3nc(C)c(C)c(N(C)C)n3)CC2)c1 [compound 2860]	1 (Class 1: The value of percent of control at 10^−7 M was less than 40% or the value of IC50 was less than 50 nM.)
CCOc1cccc(C(=O)N[C@H]2CC[C@@H](Nc3nc(C)c(C)c(N(C)C)n3)CC2)c1 [compound 2861]	1 (Class 1: The value of percent of control at 10^−7 M was less than 40% or the value of IC50 was less than 50 nM.)
Cc1nc(N[C@H]2CC[C@@H](NC(=O)c3cccc(OC(C)C)c3)CC2)nc(N(C)C)c1C [compound 2862]	1 (Class 1: The value of percent of control at 10^−7 M was less than 40% or the value of IC50 was less than 50 nM.)
Cc1nc(N[C@H]2CC[C@@H](NC(=O)c3cccc(O)n3)CC2)nc(N(C)C)c1C [compound 2863]	3 (Class 3 The value of percent of control at 10^−7 M was more than 60% or the value of IC50 was more than 200 nM.)
Cc1nc(N[C@H]2CC[C@@H](NC(=O)c3ccc(F)c(F)c3)CC2)nc(N(C)C)c1C [compound 2864]	1 (Class 1: The value of percent of control at 10^−7 M was less than 40% or the value of IC50 was less than 50 nM.)
Cc1nc(N[C@H]2CC[C@@H](NCc3cccc(OC(F)(F)F)c3)CC2)nc(N(C)C)c1C [compound 2865]	3 (Class 3 The value of percent of control at 10^−7 M was more than 60% or the value of IC50 was more than 200 nM.)
Cc1nc(N[C@H]2CC[C@@H](NCc3ccc(F)c(F)c3)CC2)nc(N(C)C)c1C [compound 2866]	2 (Class 2: The value of percent of control at 10^−7 M was from 40% to 60% or the value of IC′50 was from 50 nM to 200 nM.)
CCOc1ccccc1NC(=O)N[C@H]1CC[C@@H](Nc2nc(C)c(C)c(N(C)C)n2)CC1 [compound 2868]	1 (Class 1: The value of percent of control at 10^−7 M was less than 40% or the value of IC50 was less than 50 nM.)
Cc1nc(N[C@H]2CC[C@@H](NC(=O)Nc3ccc(OCc4ccccc4)cc3)CC2)nc(N(C)C)c1C [compound 2869]	3 (Class 3 The value of percent of control at 10^−7 M was more than 60% or the value of IC50 was more than 200 nM.)
Cc1cnc(N[C@H]2CC[C@@H](NC(=O)C3(c4ccc(Cl)cc4)CC3)CC2)nc1N(C)C [compound 2870]	1 (Class 1: The value of percent of control at 10^−7 M was less than 40% or the value of IC50 was less than 50 nM.)
Cc1cnc(N[C@H]2CC[C@@H](NC(=O)C3(c4ccc(Cl)cc4Cl)CC3)CC2)nc1N(C)C [compound 2871]	1 (Class 1: The value of percent of control at 10^−7 M was less than 40% or the value of IC50 was less than 50 nM.)
Cc1cnc(N[C@H]2CC[C@@H](NC(=O)Cc3ccc(Cl)cc3)CC2)nc1N(C)C [compound 2872, 2-(4-chlorophenyl)-N-(cis-4-{[4-(dimethylamino)-5-methylpyrimidin-2-yl]amino}cyclohexyl)acetamide]	1 (Class 1: The value of percent of control at 10^−7 M was less than 40% or the value of IC50 was less than 50 nM.)
Cc1ccc(C2(C(=O)N[C@H]3CC[C@@H](Nc4ncc(C)c(N(C)C)n4)CC3)CC2)cc1 [compound 2873]	1 (Class 1: The value of percent of control at 10^−7 M was less than 40% or the value of IC50 was less than 50 nM.)
COc1ccc(C2(C(=O)N[C@H]3CC[C@@H](Nc4ncc(C)c(N(C)C)n4)CC3)CC2)cc1 [compound 2875]	1 (Class 1: The value of percent of control at 10^−7 M was less than 40% or the value of IC50 was less than 50 nM.)
COc1cccc(OCC(=O)N[C@H]2CC[C@@H](Nc3ncc(C)c(N(C)C)n3)CC2)c1 [compound 2877, N-(cis-4-{[4-(dimethylamino)-5-methylpyrimidin-2-yl]amino}cyclohexyl)-2-(3-methoxyphenoxy)acetamide]	1 (Class 1: The value of percent of control at 10^−7 M was less than 40% or the value of IC50 was less than 50 nM.)
Cc1cnc(N[C@H]2CC[C@@H](NC(=O)COc3cccc(C(F)(F)F)c3)CC2)nc1N(C)C [compound 2878, N-(cis-4-{[4-(dimethylamino)-5-methylpyrimidin-2-yl]amino}cyclohexyl)-2-[3-(trifluoromethyl)phenoxy]acetamide]	1 (Class 1: The value of percent of control at 10^−7 M was less than 40% or the value of IC50 was less than 50 nM.)
